From US10098350B2, “Fungicidal amides” (E. I. DU PONT DE NEMOURS AND COMPANY, priority 2013, dated 2018)

How the values were obtained:
Type in all cases: in vivo
Botrytis cinerea = assay: Test A: tomato seedlings sprayed with test suspension, inoculated with Botrytis cinerea (gray mold), visual disease rating
Description: General protocol for preparing test suspensions for Tests A-E: the test compounds were first dissolved in acetone in an amount equal to 3% of the final volume and then suspended at the desired concentration (in ppm) in acetone and purified water (50/50 mix by volume) containing 250 ppm of the surfactant Trem® 014 (polyhydric alcohol esters). The resulting test suspensions were then used in Tests A-E. Samples were applied to plants at either a 10 ppm (**), 40 ppm, 50 ppm (*) or 200 ppm (#) test solution to the point of run-off on the test plants with the equivalent of a rate of 40 g ai/ha, 160 g ai/ha, 200 g ai/ha, or 800 g ai/ha, respectively.
The test suspension was sprayed to the point of run-off on tomato seedlings. The following day the seedlings were inoculated with a spore suspension of Botrytis cinerea (the causal agent of gray mold on many crops) and incubated in a saturated atmosphere at 20° C. for 48 h, and moved to a growth chamber at 27° C. for 2 days, after which time visual disease ratings were made.
Results for Tests A-E are given in Table A. In the Table, a rating of 100 indicates 100% disease control and a rating of 0 indicates no disease control (relative to the controls). A dash (-) indicates no test results.

[1] = test system: Stagonospora nodorum (also known as Septoria nodorum); assay: Test B: wheat seedlings sprayed with test suspension, inoculated with Stagonospora nodorum (wheat glume blotch), visual disease rating
In short: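 Compounds in acetone/water 50/50 with 250 ppm Trem 014 were sprayed to run-off on wheat seedlings at 10, 40, 50 or 200 ppm (40–800 g ai/ha). Plants were inoculated next day, held 48 h saturated at 20 °C, then 6 days in a growth chamber at 20 °C. Visual rating 0–100% disease control relative to controls.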

Septoria tritici = assay: Test C: wheat seedlings sprayed with test suspension, inoculated with Septoria tritici (wheat leaf blotch), visual disease rating
In short: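 Wheat seedlings sprayed to run-off with compound suspended in acetone/water with 250 ppm Trem 014, at 10, 40, 50 or 200 ppm (40–800 g ai/ha). Inoculated with Septoria tritici spores the next day, held 48 h saturated at 24 °C, then 21 days at 20 °C. Visual rating 0–100% disease control relative to controls.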

[2] = test system: Puccinia recondite f. sp. tritici; assay: Test D: wheat seedlings sprayed with test suspension, inoculated with Puccinia recondite f. sp. tritici (wheat leaf rust), visual disease rating
In short: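 Wheat seedlings were sprayed to run-off with compound suspended in 50/50 acetone–water containing 250 ppm Trem 014, at 10-200 ppm (40-800 g ai/ha). They were inoculated with rust spores the next day, then kept 24 h saturated at 20 °C and 6 days at 20 °C. Scores are visual % disease control versus untreated controls.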

[3] = test system: Erysiphe graminis f. sp. tritici; assay: Test E: wheat seedlings sprayed with test suspension, inoculated with Erysiphe graminis f. sp. tritici (wheat powdery mildew), visual disease rating
In short: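 Wheat seedlings sprayed to run-off with compound suspension (acetone 3%, acetone/water 50/50 with 250 ppm Trem 014) at 10, 40, 50 or 200 ppm (40–800 g ai/ha), inoculated next day with spore dust. Incubated 7 or 8 days at 20° C, then rated visually as % disease control relative to controls (0–100).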

[4] = Cmpd. No. marked '#' (other test rate; meaning of mark not shown)
[5] = Cmpd. No. unmarked, 100 = 100% disease control, 0 = no control relative to controls
[6] = Cmpd. No. marked '*' (other test rate; meaning of mark not shown)

Row | SMILES | Test A rating (% disease control) (Botrytis cinerea; [4]) | Test A rating (% disease control) (Botrytis cinerea; [5]) | Test B rating (% disease control) [1, 4] | Test B rating (% disease control) [1, 5] | Test C rating (% disease control) (Septoria tritici; [4]) | Test C rating (% disease control) (Septoria tritici; [5]) | Test D rating (% disease control) [2, 4] | Test D rating (% disease control) [2, 5] | Test E rating (% disease control) [3, 4] | Test E rating (% disease control) [3, 5] | Test A rating (% disease control) (Botrytis cinerea; [6]) | Test B rating (% disease control) [1, 6] | Test C rating (% disease control) (Septoria tritici; [6]) | Test D rating (% disease control) [2, 6] | Test E rating (% disease control) [3, 6]
1 | CC(c1ccc(-n2ccc(C(F)(F)F)n2)nc1)N(C(=O)c1cn(C)nc1C(F)F)C1CC1 (centres unmarked) [Compound 1, N-cyclopropyl-3-(difluoromethyl)-1-methyl-N-[1-[6-[3-(trifluoromethyl)-1H-pyrazol-1-yl]-3-pyridinyl]ethyl]-1H-pyrazole-4-carboxamide] | 0% | 0% | 69% | 0% | 93% | 86% | 28% | 0% | 98% | 96% | – | – | – | – | –
2 | Cn1nc(C(F)F)c(C(=O)N(Cc2cccc(-n3ccc(C(F)(F)F)n3)c2)C2CC2)c1F [Compound 3, N-cyclopropyl-3-(difluoromethyl)-5-fluoro-1-methyl-N-[[3-[3-(trifluoromethyl)-1H-pyrazol-1-yl]phenyl]methyl]-1H-pyrazole-4-carboxamide] | – | 0% | – | 100% | – | 100% | – | 99% | – | 99% | – | – | – | – | –
3 | Cn1cc(C(=O)N(Cc2cccc(-n3ccc(C(F)(F)F)n3)c2)C2CC2)c(C(F)F)n1 [Compound 9, N-cyclopropyl-3-(difluoromethyl)-1-methyl-N-[[3-[3-(trifluoromethyl)-1H-pyrazol-1-yl]phenyl]methyl]-1H-pyrazole-4-carboxamide] | 39% | 9% | 99% | 93% | 100% | 96% | 74% | 9% | 96% | 81% | – | – | – | – | –
4 | Cn1cc(C(=O)N(Cc2ccc(-n3cc(Br)cn3)cc2Cl)C2CC2)c(C(F)F)n1 [Compound 10] | – | 0% | – | 99% | – | 38% | – | 86% | – | 0% | – | – | – | – | –
5 | Cn1nc(C(F)F)c(C(=O)N(Cc2ccc(-n3ccc(C(F)(F)F)n3)cc2Cl)C2CC2)c1F [Compound 12, N-[[2-chloro-4-[3-(trifluoromethyl)-1H-pyrazol-1-yl]phenyl]methyl]-N-cyclopropyl-3-(difluoromethyl)-5-fluoro-1-methyl-1H-pyrazole-4-carboxamide] | – | 0% | – | 100% | – | 100% | – | 99% | – | 97% | – | – | – | – | –
6 | Cn1cc(C(=O)N(Cc2ccc(-n3ccc(C(F)(F)F)n3)cc2Cl)C2CC2)c(C(F)(F)F)n1 [Compound 35] | – | 0% | – | 0% | – | 89% | – | 9% | – | 0% | – | – | – | – | –
7 | Cn1cc(C(=O)N(Cc2cnc(-n3ccc(C(F)(F)F)n3)cc2Cl)C2CC2)c(C(F)(F)F)n1 [Compound 148] | – | – | – | – | – | – | – | – | – | – | 0% | 0% | 9% | 0% | 0%
8 | Cn1cc(C(=O)N(Cc2cccc(-n3ccc(C(F)(F)F)n3)c2)C2CC2)c(C(F)(F)F)n1 [Compound 149] | – | 0% | – | 0% | – | 43% | – | 0% | – | 0% | – | – | – | – | –
9 | Cc1nc(C(F)(F)F)c(C(=O)N(Cc2cccc(-n3ccc(C(F)(F)F)n3)c2)C2CC2)s1 [Compound 150] | – | 0% | – | 0% | – | 48% | – | 9% | – | 0% | – | – | – | – | –
10 | Cc1nc(C(F)(F)F)c(C(=O)N(Cc2ccc(-n3ccc(C(F)(F)F)n3)cc2Cl)C2CC2)s1 [Compound 151] | – | 23% | – | 0% | – | 87% | – | 23% | – | 0% | – | – | – | – | –
11 | Cc1ccsc1C(=O)N(Cc1cccc(-n2ccc(C(F)(F)F)n2)c1)C1CC1 [Compound 152] | – | 0% | – | 0% | – | 0% | – | 0% | – | 0% | – | – | – | – | –
12 | Cn1cc(C(=O)N(Cc2ccc(-n3ccc(Cl)n3)cn2)C2CC2)c(C(F)F)n1 [compound 5] | 0% | 0% | 0% | 0% | 80% | 17% | 28% | 0% | 0% | 0% | – | – | – | – | –
13 | Cn1cc(C(=O)N(Cc2ccc(-n3cc(Cl)cn3)cn2)C2CC2)c(C(F)F)n1 [compound 6] | 0% | 0% | 98% | 0% | 67% | 9% | 28% | 0% | 13% | 0% | – | – | – | – | –
14 | Cn1cc(C(=O)N(Cc2ccc(-n3ccc(-c4ccccc4)n3)cn2)C2CC2)c(C(F)F)n1 [compound 8] | 0% | 0% | 0% | 0% | 88% | 27% | 74% | 0% | 0% | 0% | – | – | – | – | –
15 | Cn1cc(C(=O)N(Cc2ccc(-n3ccc(C(F)(F)F)n3)cc2Cl)C2CC2)c(C(F)F)n1 [compound 11] | – | 0% | – | 89% | – | 100% | – | 54% | – | 43% | – | – | – | – | –
16 | Cn1cc(C(=O)N(Cc2cc(-n3ccc(C(F)(F)F)n3)ccc2[N+](=O)[O-])C2CC2)c(C(F)F)n1 [compound 13] | – | 0% | – | 0% | – | 0% | – | 32% | – | 0% | – | – | – | – | –
17 | COc1ccc(-n2ccc(C(F)(F)F)n2)cc1CN(C(=O)c1cn(C)nc1C(F)F)C1CC1 [compound 14] | – | 0% | – | 42% | – | 83% | – | 32% | – | 92% | – | – | – | – | –
18 | CC(c1ncc(-n2ccc(C(F)(F)F)n2)cc1Cl)N(C(=O)c1cn(C)nc1C(F)F)C1CC1 (centres unmarked) [compound 17] | – | 0% | – | 100% | – | 99% | – | 23% | – | 92% | – | – | – | – | –
19 | CC(c1ccc(-n2ccc(C(F)(F)F)n2)cc1Cl)N(C(=O)c1cn(C)nc1C(F)F)C1CC1 (centres unmarked) [compound 19] | – | 0% | – | 99% | – | 75% | – | 85% | – | 64% | – | – | – | – | –
20 | Cn1cc(C(=O)N(Cc2ccc(-n3cc(Cl)cn3)cc2Cl)C2CC2)c(C(F)F)n1 [compound 20] | – | 32% | – | 99% | – | 94% | – | 79% | – | 40% | – | – | – | – | –
